According to patent US20240383893A1, “Hydroxamic Acid Compound Having ENPP1 Inhibitory Activity and Use Thereof” (Haihe Biopharma Co., Ltd., priority 2021, published 2024):
pIC50: −log10 of the molar value.

Biological target: ENPP1 (hENPP1-ECD-His) (Homo sapiens (Human), UniProt P22413)
Experiment: not given
Details: not given

Sequence of ENPP1 (hENPP1-ECD-His) (P22413 98-925): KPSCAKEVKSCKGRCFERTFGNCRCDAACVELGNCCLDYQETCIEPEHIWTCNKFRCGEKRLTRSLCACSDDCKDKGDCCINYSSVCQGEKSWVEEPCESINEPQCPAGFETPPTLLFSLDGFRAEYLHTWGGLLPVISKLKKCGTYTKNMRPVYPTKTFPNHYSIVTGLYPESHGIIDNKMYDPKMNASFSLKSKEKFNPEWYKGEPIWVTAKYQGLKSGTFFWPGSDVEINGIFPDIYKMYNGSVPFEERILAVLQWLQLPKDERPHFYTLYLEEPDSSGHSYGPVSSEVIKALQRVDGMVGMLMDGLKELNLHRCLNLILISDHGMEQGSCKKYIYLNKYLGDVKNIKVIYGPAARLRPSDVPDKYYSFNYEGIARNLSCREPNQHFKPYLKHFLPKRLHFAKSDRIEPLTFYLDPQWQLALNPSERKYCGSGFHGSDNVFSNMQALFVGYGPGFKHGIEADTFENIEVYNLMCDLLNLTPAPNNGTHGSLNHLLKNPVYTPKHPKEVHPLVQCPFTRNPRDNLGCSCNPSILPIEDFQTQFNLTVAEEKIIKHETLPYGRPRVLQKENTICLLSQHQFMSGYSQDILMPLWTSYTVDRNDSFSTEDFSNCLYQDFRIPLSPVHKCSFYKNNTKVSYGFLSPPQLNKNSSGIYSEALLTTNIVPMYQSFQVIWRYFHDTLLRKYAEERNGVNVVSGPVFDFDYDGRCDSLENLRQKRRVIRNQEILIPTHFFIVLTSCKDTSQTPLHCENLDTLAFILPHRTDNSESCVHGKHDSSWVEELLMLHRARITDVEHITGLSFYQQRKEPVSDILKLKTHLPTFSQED

Compound	pIC50
COc1ccc2c(Nc3ccc(CC(=O)NO)c(OC)c3)ccnc2n1 [Compound 79]	8.72
COc1ccc2c(Nc3cnn(C(C(=O)NO)C(C)C)c3)ccnc2n1 (stereo not drawn) [Compound 167]	6.99
COc1cc2nccc(Nc3ccc(CC(=O)NO)cc3)c2cc1OC [Example A-1, reference compound]	7.05
CCn1nc(C)c2c(Nc3ccc(C(C)(C)C(=O)NO)cc3)ncnc21 [Compound 83]	8.36
COc1ccc2c(OC3CCN(C(C)(C)C(=O)NO)CC3)ccnc2n1 [Compound 116]	7.68
COc1ccc2c(N[C@H]3CCN(C(C)(C)C(=O)NO)C3)ccnc2n1 [Compound 202]	8.48
CCn1ncc2c(Nc3ccc(C(C)(C)C(=O)NO)cc3)ccnc21 [Compound 82]	8.77
COc1ccc2c(Nc3ccc(CC(=O)NO)cc3)nc(Cl)nc2c1 [Compound 22]	8.74
COc1ccc2c(Nc3ccc(CC(=O)NO)c(Cl)c3)ccnc2n1 [Compound 78]	8.74
COc1cc2nccc(Nc3ccc(C(CC(C)C)C(=O)NO)cc3)c2cn1 (stereo not drawn) [Compound 179]	9.00
COc1ccc2c(Oc3ccc(C4(C(=O)NO)CC5CCC(C4)O5)cc3)ccnc2n1 (stereo not drawn) [Compound 176]	8.54
CC(C(=O)NO)c1ccc(Oc2ccnc3c2cnn3C)cc1 (stereo not drawn) [Compound 36]	7.62
COc1ccc2c(Oc3ccc(C(C)C(=O)NO)cc3)ccnc2n1 (stereo not drawn) [Compound 27]	8.68
COc1ccc2c(Nc3ccc4c(c3)CCC4C(=O)NO)ccnc2n1 (stereo not drawn) [Compound 51]	8.60
COc1ccc2c(Oc3ccc(C(C)(C)C(=O)NO)cc3)cc(C)nc2n1 [Compound 67]	8.77
CC(C)(C(=O)NO)c1ccc(Oc2ccnc3cc(Cl)ccc23)cc1 [Compound 94]	6.59
COc1ccc2c(Cc3ccc(C4(C(=O)NO)CCOCC4)cc3)ccnc2n1 [Compound 171]	8.74
COc1ccc2c(Nc3ccc(CC(=O)NO)cc3)nc(C)nc2n1 [Compound 37]	8.62
COc1ccc2c(Oc3ccc(C4(C(=O)NO)CCN(C)CC4)cc3)ccnc2n1 [Compound 146]	7.89
COc1cc2ncnc(Oc3ccc(CC(=O)NO)cc3)c2cc1OC [Compound 11]	7.55
COc1cc2nccc(Oc3ccc(CC(=O)NO)cc3)c2cc1F [Compound 13]	8.86
COc1ccc2c(Nc3cc(F)c(CC(=O)NO)c(F)c3)ccnc2n1 [Compound 70]	8.77
COc1cc2ncnc(Nc3ccc(C(C(=O)NO)C(C)C)cc3)c2cn1 (stereo not drawn) [Compound 187]	7.57
COc1ccc2c(Nc3ccc(C4(C(=O)NO)CCOCC4)cc3)ccnc2c1 [Compound 164]	8.47
COc1ccc2c(CN3CCC(C(C)(C)C(=O)NO)C3)ccnc2n1 (stereo not drawn) [Compound 157]	7.09
COc1cc2nccc(Nc3cc(F)c(C(C(=O)NO)C(C)C)c(F)c3)c2cn1 (stereo not drawn) [Compound 191]	7.96
COc1ccc2c(Oc3ccc(C(CC(C)C)C(=O)NO)cc3)ccnc2n1 (stereo not drawn) [Compound 132]	8.18

Compound	pIC50
COc1cc2nccc(Nc3ccc(CC(=O)NO)c(F)c3)c2cn1 [Compound 189]	8.74
COc1ccc2c(O[C@H]3CCN(C(C)(C)C(=O)NO)C3)ccnc2n1 [Compound 205]	7.41
COc1ccc2c(Oc3c(F)cc(C4(C(=O)NO)CCOCC4)cc3F)ccnc2n1 [Compound 137]	8.59
COc1ccc2c(Nc3c(F)cc(CC(=O)NO)cc3F)ccnc2n1 [Compound 71]	8.74
COc1ccc2c(Oc3ccc(C4(C(=O)NO)CCCOCC4)cc3)ccnc2n1 (stereo not drawn) [Compound 175]	8.72
CCn1ncc2c(Nc3ccc(C(C)(C)C(=O)NO)cc3)ncnc21 [Compound 91]	8.92
COc1ccc2c(Oc3ccc(C(N)C(=O)NO)cc3)ccnc2n1 (stereo not drawn) [Compound 148]	8.55
COc1cc2nccc(Nc3cc(F)c(C(CC(C)C)C(=O)NO)c(F)c3)c2cn1 (stereo not drawn) [Compound 186]	8.42
COc1ccc2c(Nc3ccc(C(C)(C)C(=O)NO)nc3)ccnc2n1 [Compound 127]	8.80
COc1ccc2c(Oc3ccc(C(OC)C(=O)NO)cc3)ccnc2n1 (stereo not drawn) [Compound 85]	8.32
COc1ccc2c(Oc3cccc(CC(=O)NO)c3)ccnc2n1 [Compound 75]	6.95
COc1ccc2c(Oc3ccc(C(CC(C)C)C(=O)NO)c(F)c3)ccnc2n1 (stereo not drawn) [Compound 201]	7.96
COc1ccc2c(Oc3ccc(C(C)(C)C(=O)NO)c(C)c3)ccnc2n1 [Compound 109]	8.64
Cn1ncc2c(Nc3ccc(C4(C(=O)NO)CCOCC4)cc3)ncnc21 [Compound 207]	8.03
COc1cc2nccc(Nc3c(F)cc(C(CC(C)C)C(=O)NO)cc3F)c2cn1 (stereo not drawn) [Compound 184]	8.66
Cn1ncc2c(Oc3ccc(C4(C(=O)NO)CCOCC4)c(Cl)c3)ccnc21 [Compound 197]	6.95
COc1ccc2c(Nc3ccc(C4(C(=O)NO)CCOCC4)cc3)c(C#N)cnc2c1 [Compound 180]	8.80
Cc1ccc2c(Nc3ccc(CC(=O)NO)cc3)ncnc2n1 [Compound 60]	6.17
CCn1ncc2c(Oc3ccc(C(C)C(=O)NO)cc3)ccnc21 (stereo not drawn) [Compound 73]	8.07
COc1ccc2c(N3CCc4cc(C5(C(=O)NO)CCOCC5)ccc43)ccnc2n1 [Compound 158]	8.00
Cc1nn(C)c2nccc(Oc3ccc(C(C)(C)C(=O)NO)cc3)c12 [Compound 84]	8.21
CCC(CC)(C(=O)NO)c1ccc(Oc2ccnc3nc(OC)ccc23)cc1 [Compound 124]	8.80
COc1ccc2c(Oc3ccc(N4CCC[C@H]4C(=O)NO)cc3)ccnc2n1 [Compound 196, (S)—N-hydroxy-1-(4-((7-methoxy-1,8-naphthylidin-4-yl)oxy)phenyl)pyrrolidin-2-formamide]	6.89
COc1ccc2c(Nc3ccc(CC(=O)NO)cc3)ncnc2n1 [Example 1, N-hydroxy-2-(4-((7-methoxypyridino[2,3-d]pyrimidin-4-yl)amino)phenyl)acetamide]	8.74
COc1cc2nccc(Nc3ccc(C4(C(=O)NO)CCOCC4)c(F)c3)c2cn1 [Compound 181]	8.72
COc1ccc2c(N(C)c3ccc(C(C)(C)C(=O)NO)cc3)ccnc2n1 [Compound 114]	6.79
COc1ccc2c(N[C@H]3CC[C@H](CC(=O)NO)CC3)ccnc2n1 [Compound 89]	7.62

Compound	pIC50
COc1ccc2c(Nc3ccc(C(C)(C)C(=O)NO)cn3)ccnc2n1 [Compound 101]	8.96
COc1ccc2c(Oc3cc(F)c(C(C)(C)C(=O)NO)cc3F)ccnc2n1 [Compound 112]	8.60
Cc1cc(Nc2ncnc3ccccc23)ccc1CC(=O)NO [Compound 24]	7.44
COc1ccc2c(Oc3ccc(C4(C(=O)NO)CCOCC4)cc3Cl)ccnc2n1 [Compound 138]	8.22
COc1ccc2c(Cc3ccc(C4(C(=O)NO)CCCC4)cc3)ccnc2n1 [Compound 141, N-hydroxy-1-(4-((7-methoxy-1,8-naphthylidin-4-yl)methyl)phenyl)cyclopentane-1-formamide]	8.85
COc1ccc2c(Nc3cnn(CC(=O)NO)c3)ccnc2n1 [Compound 90]	8.35
COc1cnc2c(Oc3ccc(CC(=O)NO)cc3)ccnc2c1 [Compound 20]	6.49
COc1ccc2c(Nc3c(F)cc(C(C)C(=O)NO)cc3F)ccnc2n1 (stereo not drawn) [Compound 62]	8.80
Cc1noc2ncnc(Oc3ccc(C(C)(C)C(=O)NO)cc3)c12 [Compound 194, N-hydroxy-2-methyl-2-(4-((3-methylisoxazol[5,4-d]pyrimidin-4-yl)oxy)phenyl)propanamide]	6.55
COc1ccc2c(Oc3ccc(C4(C(=O)NO)CCOCC4)c(C)c3)ccnc2n1 [Compound 139]	8.64
CCn1ncc2c(Nc3ccc(CC(=O)NO)cc3)ncnc21 [Compound 33]	8.62
COc1ccc2c(Nc3ccc4c(c3)OCC4C(=O)NO)ccnc2n1 (stereo not drawn) [Compound 59]	8.74
COc1ccc2c(Oc3cc(F)c(C4(C(=O)NO)CCOCC4)cc3F)ccnc2n1 [Compound 134]	8.48
COc1ccc2c(Nc3ccc(CC(=O)NO)cn3)ccnc2n1 [Compound 45]	8.51
COc1ccc2c(NC3CCN(C(C)(C)C(=O)NO)CC3)ccnc2n1 [Compound 117]	8.68
COc1ccc2c(Nc3ccc(CC(=O)NO)c4ccccc34)ccnc2n1 [Compound 96]	8.17
COc1ccc2nccc(Oc3ccc(C(C)(C)C(=O)NO)cc3)c2c1 [Compound 99]	7.20
Cn1ncc2c(Oc3ccc(CC(=O)NO)cc3)ccnc21 [Compound 28]	7.85
COc1ccc2c(NC3CCN(CC(=O)NO)C3)ccnc2n1 (stereo not drawn) [Compound 143]	8.33
COc1ccc2c(Oc3ccc(CC(=O)NO)cc3C)ccnc2n1 [Compound 21]	8.51
Cc1nn(C)c2nccc(Nc3ccc(CC(=O)NO)cc3)c12 [Compound 55]	8.37
Cn1ncc2c(Nc3ccc(C(C)(C)C(=O)NO)cc3)ccnc21 [Compound 81]	8.72
O=C(Cc1ccc(Nc2ncnc3cnccc23)cc1)NO [Compound 35]	7.31
COc1ccc2c(Nc3ccc(CC(=O)NO)cc3)ncnc2c1 [Compound 10]	8.57
Cn1ncc2c(Oc3ccc(C4(C(=O)NO)CC4)cc3)ccnc21 [Compound 80]	8.72
COc1ccc2c(Oc3ccc(C(C)(C)C(=O)NO)c(Cl)c3)ccnc2n1 [Compound 103]	7.68

System: not listed separately
Experiment: Preliminary pharmacokinetic testing in ICR mice (gavage 5 mg/kg, intravenous 1 mg/kg)
Assay type: in vivo
Details: male, mouse, oral administration (5 mg/kg), plasma
Protocol: 1. 6 healthy ICR mice, male, weighing 30-35 g, were randomly divided into 2 groups with 3 mice in each group. The tested compound was administered by gavage (5 mg/kg) and intravenous injection (1 mg/kg), respectively:
Feeding uniformly 4 hours after administration.

Compound	AUC(0-t) [ng·h/mL]	half-life [min]
COc1ccc2c(Oc3ccc(CC(=O)NO)cc3)ccnc2n1 [Compound 2, N-hydroxy-2-(4-((7-methoxy-1,8-naphthylidin-4-yl)oxy)phenyl)acetamide]	619	
COc1ccc2c(Oc3ccc(C4(C(=O)NO)CCOCC4)cc3)ccnc2n1 [Compound 107]	463	120

Same assay, conditions: male, mouse, oral administration (5 mg/kg), plasma, read-out: Cmax

Compound	Cmax [ng/mL]
COc1ccc2c(Oc3ccc(C4(C(=O)NO)CCOCC4)cc3)ccnc2n1 [Compound 107]	640

Same assay, conditions: male, mouse, plasma, po, 5 mg/kg, read-out: oral bioavailability

Compound	bioavailability [%]
COc1ccc2c(Oc3ccc(CC(=O)NO)cc3)ccnc2n1 [Compound 2, N-hydroxy-2-(4-((7-methoxy-1,8-naphthylidin-4-yl)oxy)phenyl)acetamide]	> 20

Same assay, conditions: oral administration (5 mg/kg), plasma

Compound	Cmax [ng/mL]	T1/2 [h]
COc1ccc2c(Oc3ccc(CC(=O)NO)cc3)ccnc2n1 [Compound 2, N-hydroxy-2-(4-((7-methoxy-1,8-naphthylidin-4-yl)oxy)phenyl)acetamide]	736	3.26
